pIC50: −log10 of the molar value. Structures can show the parent of a compound that is named as a salt.
Key:
[1] = target: T1, HCV polymerase (NS5B) type 1b (Hepatitis C virus genotype 1b, UniProt P26663); test: Assay of enzyme (HCV polymerase) inhibitory activity, type 1b enzyme; assay type: biochemical, HCV BK strain (type 1b)
T1 construct: a region encoding NS5B (J Virol 1991 March, 65(3), 1105-13, 544 amino acids after deletion of 47 amino acids on the C-terminal); 6xHis (C); made in house; host or cells: Escherichia coli
Method in brief: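 His-tagged, C-terminally truncated NS5B (BK strain, 1b; 0.5 μg/ml) incubated with compound 60 min at 25 °C on 3′UTR-derived substrate RNA (5 μg/ml), 50 μM ATP/GTP/CTP, 2 μM UTP plus [3H]UTP, pH 7.5. Acid-precipitated RNA counted; IC50 from radioactivity with and without compound.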

[2] = target: T2, HCV polymerase (NS5B) type 1a (Hepatitis C virus genotype 1a, UniProt P26664); test: Assay of enzyme (HCV polymerase) inhibitory activity, type 1a enzyme; assay type: biochemical, HCV type 1a (cloned from the blood of patients)
T2 construct: made in house; host or cells: Escherichia coli (by the 'similar method' of the 1b enzyme)
Method in brief: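 His-tagged NS5B, C-terminal 47 residues deleted, type 1a at 1.5 μg/ml, with 5 μg/ml HCV 3′UTR substrate RNA, 50 μM ATP/GTP/CTP, 2 μM UTP plus [3H]UTP, pH 7.5 Tris, 5 mM MgCl2; 60 min at 25° C. TCA-precipitated RNA counted by scintillation; IC50 from radioactivity with vs. without compound.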

[3] = HCV polymerase inhibitory activity (IC50), 1b, type 1b enzyme 0.5 μg/ml, 25° C., 60 min
[4] = HCV polymerase inhibitory activity (IC50), 1a, type 1a enzyme 1.5 μg/ml, 25° C., 60 min
[5] = HCV polymerase inhibitory activity IC50, 1b, type 1b enzyme
[6] = HCV polymerase inhibitory activity IC50, 1a, type 1a enzyme

CC(=O)N1CCN(S(=O)(=O)c2cnc(Cl)c(Br)c2)C(C(=O)NCc2ccc(C(F)(F)F)cc2)C1 (stereo not shown) [Example 69, 4-acetyl-1-(5-bromo-6-chloro-pyridine-3-sulfonyl)-piperazine-2-carboxylic acid 4-trifluoromethyl-benzylamide hydrochloride]
pIC50 [1, 3]: < 6.00
pIC50 [2, 4]: < 6.00

O=C(NCc1ccc(OC(F)F)cc1)[C@H]1CN(c2nc3nc(C4CC4)ncc3s2)CCN1S(=O)(=O)c1ccc(C(F)(F)F)cc1 [Example 1023, (R)-4-(5-cyclopropyl-thiazolo[4,5-d]pyrimidin-2-yl)-1-(4-trifluoromethyl-benzenesulfonyl)-piperazine-2-carboxylic acid 4-difluoromethoxy-benzylamide]
pIC50 [1, 5]: > 7.00
pIC50 [2, 6]: > 7.00

Cc1cc(C(C)C)ccc1CNC(=O)[C@H]1CN(c2nc(C)c(C(=O)O)s2)CCN1S(=O)(=O)c1ccc(C(F)(F)F)cc1 [Example 335, 2-[(R)-3-(4-isopropyl-2-methyl-benzylcarbamoyl)-4-(4-trifluoromethyl-benzenesulfonyl)-piperazin-1-yl]-4-methyl-thiazole-5-carboxylic acid]
pIC50 [1, 3]: > 7.00
pIC50 [2, 4]: > 7.00

CC(C)(C)c1ccc(CNC(=O)[C@H]2CN(c3cnc(CN4CCCC4)cn3)CCN2S(=O)(=O)c2ccc(OC(F)(F)F)cc2)cc1 [Example 558, (R)-5′-pyrrolidin-1-ylmethyl-4-(4-trifluoromethoxy-benzenesulfonyl)-3,4,5,6-tetrahydro-2H-[1,2′]bipyrazinyl-3-carboxylic acid 4-tert-butyl-benzylamide]
pIC50 [1, 3]: > 7.00
pIC50 [2, 4]: 6.00 to 7.00

CC(=O)N1CCN(S(=O)(=O)c2ccc(C(C)C)cc2)C(C(=O)NCc2ccc(C3CCCC3)cc2)C1 (stereo not shown) [Example 139, 4-acetyl-1-(4-isopropyl-benzenesulfonyl)-piperazine-2-carboxylic acid 4-cyclopentyl-benzylamide]
pIC50 [1, 3]: 6.00 to 7.00
pIC50 [2, 4]: 6.00 to 7.00

CC(=O)N1CCN(S(=O)(=O)c2ccc(C(C)C)cc2)[C@@H](C(=O)NCc2ccc(CCO)cc2)C1 [Example 224, (R)-4-acetyl-1-(4-isopropyl-benzenesulfonyl)-piperazine-2-carboxylic acid 4-(2-hydroxy-ethyl)-benzylamide]
pIC50 [1, 3]: < 6.00
pIC50 [2, 4]: < 6.00

CC(=O)N1CCN(S(=O)(=O)c2ccc(OC(F)(F)F)cc2)[C@@H](C(=O)NCCCc2ccc(O)cc2)C1 [Example 717, (R)-4-acetyl-1-(4-trifluoromethoxy-benzenesulfonyl)-piperazine-2-carboxylic acid [3-(4-hydroxy-phenyl)-propyl]-amide]
pIC50 [1, 5]: < 6.00
pIC50 [2, 6]: < 6.00

CC(C)c1ccc(CNC(=O)[C@H]2CN(C(=O)CCNC(=O)OC(C)(C)C)CCN2S(=O)(=O)c2ccc(C(F)(F)F)cc2)cc1 [Example 186, {3-[(R)-3-(4-isopropyl-benzylcarbamoyl)-4-(4-trifluoromethyl-benzenesulfonyl)-piperazin-1-yl]-3-oxo-propyl}-carbamic acid tert-butyl ester]
pIC50 [1, 3]: 6.00 to 7.00
pIC50 [2, 4]: < 6.00

Cc1nc(N2CCN(S(=O)(=O)c3ccc(OC(F)(F)F)cc3)[C@@H](C(=O)NCc3ccc(C(C)C)cc3)C2)sc1C(=O)OC(C)(C)C [Example 320, 2-[(R)-3-(4-isopropyl-benzylcarbamoyl)-4-(4-trifluoromethoxy-benzenesulfonyl)-piperazin-1-yl]-4-methyl-thiazole-5-carboxylic acid tert-butyl ester]
pIC50 [1, 3]: < 6.00
pIC50 [2, 4]: < 6.00

COc1ccc(S(=O)(=O)N2CCN(C(C)=O)CC2C(=O)NCc2ccc(C(F)(F)F)cc2)cc1OC (stereo not shown) [Example 136, 4-acetyl-1-(3,4-dimethoxy-benzenesulfonyl)-piperazine-2-carboxylic acid 4-trifluoromethyl-benzylamide]
pIC50 [1, 3]: < 6.00
pIC50 [2, 4]: < 6.00

O=C(NCc1ccc(C(F)(F)F)cc1)[C@H]1CN(c2cnc3cncnc3n2)CCN1S(=O)(=O)c1ccc(OC(F)(F)F)cc1 [Example 660, (R)-4-pteridin-7-yl-1-(4-trifluoromethoxy-benzenesulfonyl)-piperazine-2-carboxylic acid 4-trifluoromethyl-benzylamide]
pIC50 [1, 3]: > 7.00
pIC50 [2, 4]: > 7.00

O=C(NCc1ccc(OC(F)(F)F)cc1)[C@H]1CN(c2ccc3nccnc3n2)CCN1S(=O)(=O)c1ccc(OC(F)(F)F)cc1 [Example 762, (R)-4-pyrido[2,3-b]pyrazin-6-yl-1-(4-trifluoromethoxy-benzenesulfonyl)-piperazine-2-carboxylic acid 4-trifluoromethoxy-benzylamide]
pIC50 [1, 5]: > 7.00
pIC50 [2, 6]: > 7.00

O=C(NCc1ccc(OC(F)F)cc1F)[C@H]1CN(c2nc3nc(C(F)(F)F)ncc3s2)CCN1S(=O)(=O)c1ccc(C(F)(F)F)cc1 [Example 1042, (R)-1-(4-trifluoromethyl-benzenesulfonyl)-4-(5-trifluoromethyl-thiazolo[4,5-d]pyrimidin-2-yl)-piperazine-2-carboxylic acid 4-difluoromethoxy-2-fluoro-benzylamide]
pIC50 [1, 5]: > 7.00
pIC50 [2, 6]: > 7.00

CCC(F)(F)c1ccc(CNC(=O)[C@H]2CN(c3nc4nc(Cl)ncc4s3)CCN2S(=O)(=O)c2ccc(OC(F)(F)F)cc2)cc1 [Example 895, (R)-4-(5-chloro-thiazolo[4,5-d]pyrimidin-2-yl)-1-(4-trifluoromethoxy-benzenesulfonyl)-piperazine-2-carboxylic acid 4-(1,1-difluoro-propyl)-benzylamide]
pIC50 [1, 5]: > 7.00
pIC50 [2, 6]: > 7.00

CCC(F)(F)c1ccc(CNC(=O)[C@H]2CN(c3cnc(CO)c(N)n3)CCN2S(=O)(=O)c2ccc(OC(F)(F)F)cc2)cc1 [Example 604, (R)-6′-amino-5′-hydroxymethyl-4-(4-trifluoromethoxy-benzenesulfonyl)-3,4,5,6-tetrahydro-2H-[1,2′]bipyrazinyl-3-carboxylic acid 4-(1,1-difluoro-propyl)-benzylamide]
pIC50 [1, 3]: > 7.00
pIC50 [2, 4]: 6.00 to 7.00

O=C(NCc1ccc(OC(F)(F)F)cc1)[C@H]1CN(c2nc3nc(CO)ncc3s2)CCN1S(=O)(=O)c1ccc(OC(F)(F)F)cc1 [Example 1008, (R)-4-(5-hydroxymethyl-thiazolo[4,5-d]pyrimidin-2-yl)-1-(4-trifluoromethoxy-benzenesulfonyl)-piperazine-2-carboxylic acid 4-trifluoromethoxy-benzylamide]
pIC50 [1, 5]: > 7.00
pIC50 [2, 6]: > 7.00

Cc1nc(N2CCN(S(=O)(=O)c3ccc(OC(F)(F)F)cc3)[C@@H](C(=O)NCc3ccc(C(C)C)cc3)C2)sc1C(=O)NCC(=O)O [Example 360, ({2-[(R)-3-(4-isopropyl-benzylcarbamoyl)-4-(4-trifluoromethoxy-benzenesulfonyl)-piperazin-1-yl]-4-methyl-thiazole-5-carbonyl}-amino)-acetic acid]
pIC50 [1, 3]: > 7.00
pIC50 [2, 4]: > 7.00

CC(C)c1ccc(CNC(=O)[C@H]2CN(c3nc(Br)n[nH]3)CCN2S(=O)(=O)c2ccc(C(F)(F)F)cc2)cc1 [Example 372, (R)-4-(5-bromo-2H-[1,2,4]triazol-3-yl)-1-(4-trifluoromethyl-benzenesulfonyl)-piperazine-2-carboxylic acid 4-isopropyl-benzylamide]
pIC50 [1, 3]: > 7.00
pIC50 [2, 4]: 6.00 to 7.00

CCCc1ccc(S(=O)(=O)N2CCN(c3nc(C)c(C(=O)O)s3)C[C@@H]2C(=O)NCc2ccc(C(C)C)cc2C)cc1 [Example 331, 2-[(R)-3-(4-isopropyl-2-methyl-benzylcarbamoyl)-4-(4-propyl-benzenesulfonyl)-piperazin-1-yl]-4-methyl-thiazole-5-carboxylic acid]
pIC50 [1, 3]: > 7.00
pIC50 [2, 4]: > 7.00

COC(=O)Cc1csc(N2CCN(S(=O)(=O)c3ccc(C(F)(F)F)cc3)[C@@H](C(=O)NCc3ccc(C(C)C)cc3)C2)n1 [Example 255, {2-[(R)-3-(4-isopropyl-benzylcarbamoyl)-4-(4-trifluoromethyl-benzenesulfonyl)-piperazin-1-yl]-thiazol-4-yl}-acetic acid methyl ester]
pIC50 [1, 3]: > 7.00
pIC50 [2, 4]: > 7.00

Cc1cc(=O)nc2sc(N3CCN(S(=O)(=O)c4ccc(C(F)(F)F)cc4)[C@@H](C(=O)NCc4ccc(OC(F)(F)F)cc4)C3)nn12 [Example 1028, (R)-4-(5-methyl-7-oxo-7H-[1,3,4]thiadiazolo[3,2-a]pyrimidin-2-yl)-1-(4-trifluoromethyl-benzenesulfonyl)-piperazine-2-carboxylic acid 4-trifluoromethoxy-benzylamide]
pIC50 [1, 5]: > 7.00
pIC50 [2, 6]: > 7.00

CC(C)c1ccc(CNC(=O)[C@H]2CN(c3nc(C(=O)O)cs3)CCN2S(=O)(=O)c2ccc(C(F)(F)F)cc2)cc1 [Example 244, 2-[(R)-3-(4-isopropyl-benzylcarbamoyl)-4-(4-trifluoromethyl-benzenesulfonyl)-piperazin-1-yl]-thiazole-4-carboxylic acid]
pIC50 [1, 3]: 6.00 to 7.00
pIC50 [2, 4]: 6.00 to 7.00

CCCc1ccc(CNC(=O)[C@H]2CN(c3nc4c(C(=O)OCC)cncc4s3)CCN2S(=O)(=O)c2ccc(OC(F)(F)F)cc2)cc1 [Example 1083, 2-[(R)-3-(4-propyl-benzylcarbamoyl)-4-(4-trifluoromethoxy-benzenesulfonyl)-piperazin-1-yl]-thiazolo[5,4-c]pyridine-7-carboxylic acid ethyl ester]
pIC50 [1, 5]: > 7.00
pIC50 [2, 6]: > 7.00

Reference: patent US8017612B2, “Piperazine compound and use thereof as a HCV polymerase inhibitor” (priority 2006, dated 2011)
